What all share (assay): inhibition of tumour cell growth, NCI panel, 48 h
Experiment [1] deals with SK-MEL-2 melanoma.
For experiment [2], the system named is SN12C renal.
Experiment [3] deals with U251 CNS.
Experiment [4] deals with NCI/ADR-RES ovarian.
Experiment [5] concerns IGROV1 ovarian.
For experiment [6], the system named is CCRF-CEM leukemia.
Experiment [7] deals with HCT-116 colon.
Experiment [8] has as its system EKVX NSCLC.
Experiment [9] deals with 786-0 renal.
Experiment [10] deals with NCI-H23 lung.
For experiment [11], the system named is MDA-MB-435.

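Tested at 5 concentrations; 48 h exposure; 96-well plates; endpoints linearly interpolated, else capped at highest concentration. Definition used: TGI = concentration required for complete inhibition of growth.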

With `Cc1c(-c2nc(N)c(C#N)c(N)c2C#N)c(=O)oc2ccccc12`, the TGI in experiment [1], in [2], in experiment [3], in experiment [4], in experiment [5] and in experiment [6] was > 100 µM each time. For the same compound, the TGI in experiment [7], in [8], in [9] and in [10] was > 100 µM throughout.

On to `O=C(Oc1c(Br)cc(Br)cc1C(=O)Oc1ccccc1)C(=O)Oc1c(Br)cc(Br)cc1C(=O)Oc1ccccc1`, for which the TGI in experiment [1] was 93.3 µM; in [2] it was 97.4 µM; in [3] it was 40.6 µM; in experiment [4] it was > 100 µM; in experiment [5], > 100 µM; in [7], 31.6 µM. Also, the TGI in experiment [8] is > 100 µM; in experiment [9] it was 50.3 µM; in experiment [10], 46.6 µM; in [11], > 100 µM.

`CN1CCN(c2ccc3[nH]c(C4=C(O)C(=O)[C@@H]5C(=C4O)N=C(CO)N5C)nc3n2)CC1`: the TGI in experiment [2], in [3], in experiment [4], in [5], in [6] and in experiment [7] was > 100 µM in each case. The TGI in [8], in experiment [9], in experiment [10] and in [11] was > 100 µM throughout.

On to `CN1c2ccccc2C(=O)NC12CCNCC2`, for which the TGI in experiment [3], in experiment [4], in experiment [5], in experiment [6], in experiment [7] and in [8] was > 100 µM throughout. Also, the TGI in experiment [9], in experiment [10] and in [11] was > 100 µM in each case.

In the case of `CN1C(C)(C)CC(=O)C(Br)C1(C)C` (centres undefined), the TGI in experiment [1], in [2], in experiment [3], in experiment [4], in experiment [5] and in experiment [6] was > 100 µM throughout. In addition, the TGI in [8], in [9], in [10] and in [11] was > 100 µM in each case.

In the case of `Cc1ccc(SCC(CF)OC(C)n2cnc3c(Cl)nc(N)nc32)cc1` (centres undefined), the TGI in experiment [1], in experiment [2], in [3], in experiment [4], in experiment [5] and in [6] was > 100 µM each time. The TGI in [7], in experiment [9], in [10] and in [11] was > 100 µM in each case.

On to `C/C(=N\O)C1CC2C=C(C#N)C1N(Cc1ccccc1)C2` (centres undefined), for which the TGI in [2], in experiment [3], in experiment [4], in experiment [6], in experiment [7] and in experiment [8] was > 100 µM throughout. Further, the TGI in experiment [9], in experiment [10] and in experiment [11] was > 100 µM throughout.

With `CSC1=C(C#N)C(=O)N(c2ccc(C)cc2)C(=O)C1C#N` (centres undefined), the TGI in [1], in experiment [2], in experiment [3], in experiment [5], in experiment [6] and in [7] was > 100 µM throughout. Moreover, the TGI in experiment [8], in [9], in experiment [10] and in experiment [11] was > 100 µM throughout.

With `CCOC(=O)c1cn(CC)c2ccc3ccsc3c2c1=O`, the TGI in [1], in [3], in [4], in experiment [5], in experiment [6] and in experiment [7] was > 100 µM each time. In addition, the TGI in experiment [8], in experiment [9], in [10] and in experiment [11] was > 100 µM in each case.

`CC(C)OC(=O)NNc1cccc(Cl)c1`: the TGI in [1], in experiment [2], in [3], in [4], in experiment [6] and in experiment [7] was > 100 µM each time. In addition, the TGI in experiment [8], in [9], in experiment [10] and in experiment [11] was > 100 µM each time.

In the case of `CC1CCC2CC1NC(=O)CCOCCC(=O)NC2(C)C` (centres undefined), the TGI in experiment [2], in experiment [3], in [5], in [6], in experiment [7] and in experiment [8] was > 100 µM in each case. Also, the TGI in experiment [9], in experiment [10] and in experiment [11] was > 100 µM in each case.

Turning to `Cc1ccc(S(=O)(=O)ON2C(=O)c3c(N)c(C#N)c(-c4ccccc4)c(-c4ccccc4)c3C2=O)cc1`, the TGI is 54.2 µM in experiment [1]; 40 µM in experiment [2]; 30.6 µM in experiment [3]; 62.4 µM in experiment [4]; 30.6 µM in experiment [5]; 27 µM in [6]. The TGI in [7] is 33.1 µM; in [8] it was 29.1 µM; in [9], 29.8 µM; in experiment [11], 22.1 µM.

Turning to `COc1ccccc1NC(=O)C(=O)Cc1cnc2ccccc2n1`, the TGI in [1], in experiment [2], in experiment [3], in experiment [4], in experiment [6] and in experiment [7] was > 100 µM each time. The TGI in experiment [9], in [10] and in [11] was > 100 µM throughout.

As for `O=C1CCCC2=C1CC1=C(CCCC1=O)N2c1ccc([N+](=O)[O-])cc1`, the TGI in [2], in experiment [3], in [4], in experiment [5], in experiment [6] and in experiment [8] was > 100 µM each time. Further, the TGI in [9] and in [10] was > 100 µM throughout.
